From paper PMC6100633, “Design, Synthesis, and Evaluation of a New Series of Thiazole-Based Anticancer Agents as Potent Akt Inhibitors” (Molecules : A Journal of Synthetic Chemistry and Natural …, 2018)
In brackets after ≈: the same amount, converted by molar mass.

What was measured:
[1] = system: A549 human lung adenocarcinoma cell line; assay: MTT assay, A549 cells; format: cell-based; conditions: for IC50: Homo sapiens, A549, 24 h
Protocol: (§1) C6 Rat glioma and NIH/3T3 mouse embryonic fibroblast cells were incubated in Dulbecco’s Modified Eagle’s Medium (DMEM) (Sigma, Deisenhofen, Germany) supplemented with 10% fetal calf serum (Gibco, Paisley, UK). A549 Human lung adenocarcinoma cells were incubated in 90% RPMI supplemented with 10% fetal bovine serum (Gibco, Paisley, UK). All media were supplemented with 100 IU/mL penicillin-streptomycin (Gibco, Paisley, UK) and the cells were incubated at 37 °C in a humidified atmosphere of 95% air and 5% CO2. Exponentially growing cells were plated at 2 × 10^4 cells/mL into 96-well microtiter tissue culture plates (Nunc, Roskilde, Denmark) and incubated for 24 h before the addition of the drugs (the optimum cell number for cytotoxicity assays was determined in preliminary experiments). The stock solutions of the compounds were prepared in dimethyl sulfoxide (DMSO; Sigma Aldrich, Poole, UK) and further dilutions were made with fresh culture medium (the concentration of DMSO in the final culture medium was <0.1% which had no effect on the cell viability).
(§2) The level of cellular 3-(4,5-dimethylthiazol-2-yl)-2,5-diphenyltetrazolium bromide (MTT) (Sigma-Aldrich, St. Louis, MO, USA) reduction was quantified as previously described in the literature with small modifications. […] At the end of this period, MTT was added to a final concentration of 0.5 mg/mL and the cells were incubated for 4 h at 37 °C. After the medium was removed, the formazan crystals formed by MTT metabolism were solubilized by addition of 200 µL DMSO to each well and absorbance was read at 540 nm with a microtiter plate spectrophotometer (BioTek Plate Reader, Winooski, VT, USA). Every concentration was repeated in three wells.

C6 rat glioma cell line = assay: MTT assay, C6 cells; format: cell-based; conditions: for IC50: Rattus norvegicus, C6, 24 h
Protocol: as §1, §2

A549 cells = assay: Annexin V FITC/PI flow cytometric analysis of apoptosis, A549 cells; format: cell-based, human; conditions: 24 h, compounds at IC50 values
Protocol: (§3) Annexin V staining protocol was applied according to the manufacturer’s instructions (BD Pharmingen, San Jose, CA, USA). The cells were then briefly washed with cold phosphate buffer saline (PBS) and suspended in a binding buffer at a concentration of 1 × 10^6 cells/mL. Then, 100 µL of this solution containing 1 × 10^5 cells was transferred to a 5 mL test tube. After 5 µL of Annexin V and PI was added, the cells were incubated for 15 min at room temperature in the dark. Then 400 µL of 1× binding buffer was added to each tube and the cells were processed for data acquisition, and analyzed on a BD FACSAria flow cytometer using FACSDiva version 6.1.1 software (BD Biosciences, San Jose, CA, USA).

C6 cells = assay: Annexin V FITC/PI flow cytometric analysis of apoptosis, C6 cells; format: cell-based, rat; conditions: for early and late apoptotic cell population: C6 cell line, sum of early and late apoptotic cells; for Early Apoptotic Cells% / Late Apoptotic Cells% / Viable Cells%: C6 cells, 24 h, compounds at IC50 values
Protocol: as §3

Akt [2] = assay: In cell ELISA colorimetric Akt activity, A549 cells; format: cell-based, human; conditions: compounds at IC50 concentrations for 24 h
Protocol: (§4) Briefly, the media was removed and 100 µL of 4% formaldehyde was added to each well. The plate was incubated in a fume hood at room temperature for 15 min. Formaldehyde was removed and the plate was washed twice with 100 µL/well of 1× TBS. Then, 1× TBS was removed, 100 µL/well of 1× permeabilization buffer was added and incubated for 15 min at room temperature. The permeabilization buffer was removed and the plate was washed once with 100 µL/well of 1× TBS. Then, 1× TBS was removed, 100 µL/well quenching solution was added and incubated at room temperature for 20 min. Quenching solution was removed and the plate was washed once with 100 µL/well of 1× TBS. Then, 1× TBS was removed and 100 µL/well of blocking buffer was added and incubated at room temperature for 30 min. After the blocking buffer was removed, 50 µL/well of primary antibody was added. A plate sealer was applied and incubated overnight at 4 °C. The primary antibody solution was removed and the plate was washed three times with 100 µL/well of 1× wash Buffer. After the wash buffer was removed, 100 µL/well of diluted HRP conjugate was added and incubated for 30 min at room temperature. The wash buffer was removed and 100 µL/well of TMB substrate was added. The plate was then incubated at room temperature, protected from light. 100 µL/well of TMB stop solution was added and the absorbance was measured at 450 nm within 30 min of stopping the reaction. The experiment was performed in triplicate wells. The values of blank wells were subtracted from each well of treated and control cells. Percent Akt activity was defined as the relative absorbance of treated versus untreated control cells.

Akt [3] = assay: In cell ELISA colorimetric Akt activity, C6 cells; format: cell-based, rat; conditions: compounds at IC50 concentrations for 24 h
Protocol: as §4

[4] = system: NIH/3T3 mouse embryonic fibroblast cell line; assay: MTT assay, NIH/3T3 cells (healthy); format: cell-based; conditions: NIH3T3, 24 h
Protocol: as §1, with “viability). The level of cellular 3-(4,5-dimethylthiazol-2-yl)-2,5-diphenyltetrazolium bromide (MTT) (Sigma-Aldrich, St. Louis, MO, USA) reduction was quantified as previously described in the literature with small modifications. […] At the end of this period, MTT was added to a final concentration of 0.5 mg/mL and the cells were incubated for 4 h at 37 °C. After the medium was removed, the formazan crystals formed by MTT metabolism were solubilized by addition of 200 µL DMSO to each well and absorbance was read at 540 nm with a microtiter plate spectrophotometer (BioTek Plate Reader, Winooski, VT, USA). Every concentration was repeated in three wells.” for “viability).”

| SMILES | IC50 A549 Cell Line ([1]; 24 h) | IC50 C6 Cell Line (C6 rat glioma cell line; 24 h) | Early Apoptotic Cells% (A549 cells) | Late Apoptotic Cells% (A549 cells) | early and late apoptotic cell population (C6 cells) | Early Apoptotic Cells% (C6 cells) | Late Apoptotic Cells% (C6 cells) | Akt Inhibition % A549 Cell Line (Akt [2]) | Akt Inhibition % C6 Cell Line (Akt [3]) | IC50 [1] | IC50 (C6 rat glioma cell line) | IC50 [4] | melting point | Viable Cells% (A549 cells) | Viable Cells% (C6 cells) |
| --- | --- | --- | --- | --- | --- | --- | --- | --- | --- | --- | --- | --- | --- | --- | --- |
| N.N.[Cl][Pt][Cl] [Cisplatin, cisplatin, reference compound] | 17.33 ± 2.08 µg/mL | 12.67 ± 3.06 µg/mL | 2.6% | 63.5% | 28.8% | 3.3% | 25.5% | 31.01 ± 3.18% | 77.25 ± 5.75% | – | – | – | – | – | – |
| N#Cc1ccc(Oc2ccc(C=NNc3nc(-c4ccccc4)cs3)cc2)cc1 [Compound 1, 2-[2-((4-(4-Cyanophenoxy)phenyl)methylene)hydrazinyl]-4-phenylthiazole] | – | – | – | – | – | – | – | – | – | 410 ± 14.1 µg/mL (≈ 1030 µM) | > 500 µg/mL | 197 ± 20.8 µg/mL (≈ 496 µM) | – | – | – |
| N#Cc1ccc(Oc2ccc(C=NNc3nc(-c4ccc([N+](=O)[O-])cc4)cs3)cc2)cc1 [Compound 2, 2-[2-((4-(4-Cyanophenoxy)phenyl)methylene)hydrazinyl]-4-(4-nitrophenyl)thiazole] | – | – | – | – | – | – | – | – | – | 100 ± 20 µg/mL (≈ 227 µM) | > 500 µg/mL | 71.7 ± 24.7 µg/mL (≈ 162 µM) | 250 to 251 °C | – | – |
| N#Cc1ccc(Oc2ccc(C=NNc3nc(-c4ccc(F)cc4)cs3)cc2)cc1 [Compound 3, 2-[2-((4-(4-Cyanophenoxy)phenyl)methylene)hydrazinyl]-4-(4-fluorophenyl)thiazole] | – | – | – | – | – | – | – | – | – | 193 ± 15.3 µg/mL (≈ 466 µM) | > 500 µg/mL | 170 ± 36.1 µg/mL (≈ 410 µM) | 204 to 205 °C | – | – |
| N#Cc1ccc(Oc2ccc(C=NNc3nc(-c4ccc(Cl)cc4)cs3)cc2)cc1 [Compound 4, 2-[2-((4-(4-Cyanophenoxy)phenyl)methylene)hydrazinyl]-4-(4-chlorophenyl)thiazole] | – | – | – | – | – | – | – | – | – | 207 ± 23.1 µg/mL (≈ 480 µM) | > 500 µg/mL | 180 ± 10 µg/mL (≈ 418 µM) | 227 to 228 °C | – | – |
| N#Cc1ccc(Oc2ccc(C=NNc3nc(-c4ccc(Br)cc4)cs3)cc2)cc1 [Compound 5, 2-[2-((4-(4-Cyanophenoxy)phenyl)methylene)hydrazinyl]-4-(4-bromophenyl)thiazole] | – | – | – | – | – | – | – | – | – | 198 ± 10.4 µg/mL (≈ 417 µM) | > 500 µg/mL | 163 ± 5.77 µg/mL (≈ 344 µM) | 217 to 218 °C | – | – |
| N#Cc1ccc(Oc2ccc(C=NNc3nc(-c4ccc(C#N)cc4)cs3)cc2)cc1 [Compound 6, 2-[2-((4-(4-Cyanophenoxy)phenyl)methylene)hydrazinyl]-4-(4-cyanophenyl)thiazole] | – | – | 2.3% | 36.5% | 32.8% | 4.6% | 28.2% | 45.77 ± 10.58% | 71.66 ± 4.09% | 12 ± 1.73 µg/mL (≈ 28.5 µM) | 3.83 ± 0.76 µg/mL (≈ 9.09 µM) | > 500 µg/mL | 232 to 233 °C | 14.4% | 42.2% |
| Cc1ccc(-c2csc(NN=Cc3ccc(Oc4ccc(C#N)cc4)cc3)n2)cc1 [Compound 7, 2-[2-((4-(4-Cyanophenoxy)phenyl)methylene)hydrazinyl]-4-(4-methylphenyl)thiazole] | – | – | – | – | – | 3.2% | 14.3% | – | 70.42 ± 10.37% | 270 ± 95.4 µg/mL (≈ 658 µM) | 16 ± 5.66 µg/mL (≈ 39 µM) | 185 ± 5 µg/mL (≈ 451 µM) | 228 to 229 °C | – | 69.2% |
| N#Cc1ccc(Oc2ccc(C=NNc3nc(-c4ccc(O)cc4)cs3)cc2)cc1 [Compound 8, 2-[2-((4-(4-Cyanophenoxy)phenyl)methylene)hydrazinyl]-4-(4-hydroxyphenyl)thiazole] | – | – | 2.1% | 38.7% | – | 1.9% | 23.8% | 57.37 ± 17.30% | 24.99 ± 0.52% | 107 ± 5.77 µg/mL (≈ 259 µM) | 5.83 ± 0.76 µg/mL (≈ 14.1 µM) | 227 ± 11.6 µg/mL (≈ 550 µM) | 249 to 250 °C | 18.5% | 49.7% |
| COc1ccc(-c2csc(NN=Cc3ccc(Oc4ccc(C#N)cc4)cc3)n2)cc1 [Compound 9, 2-[2-((4-(4-Cyanophenoxy)phenyl)methylene)hydrazinyl]-4-(4-methoxyphenyl)thiazole] | – | – | – | – | – | – | – | – | – | 233 ± 57.7 µg/mL (≈ 547 µM) | > 500 µg/mL | 433 ± 28.9 µg/mL (≈ 1020 µM) | 210 to 211 °C | – | – |
| N#Cc1ccc(Oc2ccc(C=NNc3nc(-c4ccc5ccccc5c4)cs3)cc2)cc1 [Compound 10, 2-[2-((4-(4-Cyanophenoxy)phenyl)methylene)hydrazinyl]-4-(naphthalen-2-yl)thiazole] | – | – | – | – | – | – | – | – | – | > 500 µg/mL | > 500 µg/mL | > 500 µg/mL | 204 to 205 °C | – | – |
| N#Cc1ccc(Oc2ccc(C=NNC(N)=S)cc2)cc1 [Compound A, 4-(4-Cyanophenoxy)benzaldehyde thiosemicarbazone] | – | – | 7.6% | 45.9% | – | 3.2% | 13.1% | 68.08 ± 2.48% | 25.23 ± 8.62% | 92.5 ± 3.54 µg/mL (≈ 312 µM) | 26.3 ± 1.53 µg/mL (≈ 88.8 µM) | 225 ± 18 µg/mL (≈ 759 µM) | 235 to 236 °C | 24.2% | 70.2% |
